Data: patent publication US20220280513A1, “ENHANCING THE ANTIVIRAL EFFICACY OF RNA VIRUS INHIBITION BY COMBINATION WITH MODULATORS OF PYRIMIDINE METABOLISM” (The Board of Trustees of the Leland Stanford Junior …, priority 2019, published 2022)

Columns and labels:
[1] = target: T1, recombinant human UCK2 (Homo sapiens, UniProt Q9BZX2); test: In vitro enzyme activity assay with recombinant human UCK2 (PK/LDH-coupled, UV 340 nm); format: biochemical
T1 construct: 6xHis (C); made in house; host or cells: E. coli BL21(DE3)
T1 sequence (Q9BZX2 1-261): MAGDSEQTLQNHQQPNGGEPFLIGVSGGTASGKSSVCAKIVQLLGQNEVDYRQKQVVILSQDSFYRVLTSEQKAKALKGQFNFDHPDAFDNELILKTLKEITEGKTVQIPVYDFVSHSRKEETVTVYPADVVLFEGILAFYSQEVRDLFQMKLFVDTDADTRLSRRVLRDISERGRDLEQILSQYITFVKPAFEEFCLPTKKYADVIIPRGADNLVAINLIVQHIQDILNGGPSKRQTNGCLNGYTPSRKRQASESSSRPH
Description: In order to guide our SAR studies, we developed an enzymatic assay to evaluate the inhibitory effect of each CPU analog against recombinant human UCK2, which was expressed and purified in E. coli. A continuous assay system was optimized by coupling UCK2 activity to the pyruvate kinase (PK) reaction, which in turn was coupled to lactate dehydrogenase (LDH). Overall reaction progress was continuously monitored by detecting the UV absorption change at 340 nm, which was correlated with the ATP consumption by UCK2. The effect of 250 μM of each CPU analog on UCK2 activity was evaluated in the presence of 50 μM uridine. […] We then individually measured the steady state kinetic parameters of UCK2 using uridine, CPU and 5-F-CPU as substrates. Their KM values were 86, 25, and 41 μM, and their kcat/KM values were 2.6×10^5, 1.5×10^5, and 7.3×10^4 s^−1 M^−1 (FIG. 5B).
Cloning, expression and purification of recombinant human UCK2 and CMPK1: Uridine cytidine kinase 2 (UCK2) was cloned into the pET-21a(+) vector using Ndel and Notl as restriction sites. […] The resulting plasmid was transformed into E. coli BL21(DE3) cells by electroporation, recovered in SOC at 37° C. for 1 h and plated onto LB agar plates with kanamycin overnight at 37° C. A single, isolated colony was inoculated into 30 mL LB supplemented with 50 μg/mL kanamycin and grown at 37° C. with shaking for 15 h. The next day, these cells were used to inoculate 1 L autoclaved LB with 50 μg/mL kanamycin. The flask was shaken at 37° C. When an optical density (OD600) of 0.7 was reached, protein expression was induced with 0.5 mM isopropyl β-D-1-thiogalactopyranoside (IPTG). The temperature was changed to 18° C. and flasks were shaken for an additional 15 h. The cell pellets were collected by spinning the media at 5000 rpm for 10 min. The pellets obtained were frozen by liquid nitrogen and stored in −80° C. for protein purification. Cell pellets were thawed and resuspended in lysis buffer containing Tris (40 mM, pH 7.5), NaCl (10 mM), imidazole (10 mM), DTT (1 mM). Cells were lysed by sonication and centrifuged at 25,000 g for 1 h. The supernatant was incubated with a slurry of Ni-NTA resin for 1 h at 4° C. and loaded onto a column. The nickel column wash buffer was Tris (40 mM, pH 7.5), NaCl (10 mM), DTT (1 mM) and each wash step contained increasing concentrations of imidazole (10, 50, or 250 mM). After SDS-PAGE confirmation of the protein fractions, protein was further purified using fast protein liquid chromatography (FPLC) using buffer A (50 mM Tris-HCl pH 8, 1 mM dithiothreitol (DTT), 10% glycerol) and elution buffer B (50 mM Tris-HCl pH 8, 1mM dithiothreitol (DTT), 10% glycerol with 500 mM NaCl) with changing gradient over a 20 minute from 2% to 100% Buffer B. FPLC eluents containing the protein was concentrated using Am icon centrifugal filter with 3K cut-off and the enzyme was stored in storage buffer (50 mM Tris-HCl pH 7.5, 10% glycerol). Human cytidine monophosphate kinase 1 (CMPK1) was purified as previously described (Deans et al., 2016).
In vitro enzyme activity assays with recombinant human UCK2: To continuously monitor reaction progress spectrophotometrically, ATP hydrolysis was coupled to NADH oxidation via pyruvate kinase (PK) and lactate dehydrogenase (LDH). Reactions were conducted at room temperature in 100 μL in 96-well plates (Greiner Bio-One, UV-Star, Half Area). Mixtures contained 20 mM HEPES (pH 7.2), 100 mM KCl, 2 mM MgCl2, 300 μM ATP, 0-500 μM uridine, 0-500 μM CPU analogs, 10 nM UCK2, 1 mM phosphoenolpyruvate, 500 μM NADH and 20 units/mL of PK and LDH. Progress was monitored in the linear region using a Biotek Synergy HT and kinetic and inhibition constants were determined using GraphPad Prism 7 (GraphPad Software).

[2] = tested on: intracellular uridine and cytidine nucleotide levels; test: LC-MS/MS analysis of intracellular nucleotides in A549 cells; format: cell-based; conditions: 250 μM with 1 μM GSK983, 5 μM uridine, 6 h
Procedure: FIG. 7. LC-MS analysis of intracellular nucleotides. (A) LC-MS analysis of intracellular uridine and cytidine nucleotide levels after 6 h treatments. In all assays, the culture medium was supplemented with 5 μM uridine and 1 μM GSK983. Error bars represent ±S.D. of two replicates. (B) LC-MS detection of mono-, di- and tri-phosphates of CPU and 5-F-CPU in cells. LC-MS/MS was performed on an Agilent 1290 infinity II LC system tandem with 6370 triple quad mass spectrometer using ion pairing chromatography. LC separation was performed at 40° C. with a solvent flow rate of 0.25 mL/min on a Zorbax RRHD Extended-C18 column (2.1×150 mm, 1.8 μM). Buffer A contained 97% H2O, 3% MeOH, 5 mM tributylamine, 5.5 mM Acetic acid and 1 μM medronic acid with pH=5.0; Buffer B contains ca. 100% MeOH, 5 mM tributylamine, 5.5 mM Acetic acid and 5 μM medronic acid with pH=7.0 The initial mobile phase composition was 100% solvent A, and a constant or linear gradient was applied after sample injection with eluent B varying as follows: 0% at 2.5 min, 20% at 7.5 min, 45% at 14 min, 99% at 20 to 23 min, and 0% from 23.1 to 27.1 min. […] Samples were measured in the negative ESI mode with capillary voltage at −3.5 kV. […]
With optimized sampling and detection method in hand, pyrimidine nucleotide levels were measured in cells cultured with either 250 μM CPU, 5-F-CPU or 5′-F-CPU in combination with 1 μM GSK983 (FIG. 7A). […]

[3] = tested on: DENV-2 virus; test: Pilot antiviral assay, DENV-Luc replication in A549 cells (FIG. 2); format: cell-based, dengue serotype 2 (DENV-2) strain 16681; conditions: alone, 20 μM exogenous uridine
Procedure: We therefore focused our efforts on evaluating CPU in combination with GSK983. Using an infectious clone of dengue serotype 2 (DENV-2) strain 16681 engineered to express a luciferase reporter, the efficacy and cytotoxicity of combinations of GSK983 and CPU were assessed in infected or uninfected cultures of the A549 lung carcinoma cell line (FIG. 2). […] However, a combination of 0.2 μM GSK and 250 μM CPU inhibited ca. 50% of virus replication.
(§1) DENV-Luc reporter virus generation: The design of the pDENV-Luc infectious clone derived from dengue serotype 2 (DENV-2) strain 16681 was described in detail by Marceau et al (Marceau et al., 2016). The plasmid was linearized with Xbal and in vitro transcribed into the genomic RNA of DENV-Luc virus using the T7 Megascript Kit (Ambion) in the presence of m7G(5′)ppp(5′)G RNA Cap Structure Analog (NEB). 5 μg DENV-Luc RNA was electroporated into 2×10^6 Vero cells. The transfected cells were resuspended with Dulbecco's modified Eagle's medium (DMEM; Invitrogen) with 10% FBS and 100 U/ml penicillin-streptomycin and transferred into a T-175 flask incubated at 37° C. with 5% CO2. Supernatants were collected and replenished with fresh medium every 24 h from day 17 to 24 post-transfection, pooled together, clarified by centrifugation and stored in aliquots at −80° C. The amount of infectious DENV-Luc virus in the stock was titrated using the TCID50 assay and calculated by the Spearman & Kärber algorithm as described previously (Hierholzer and Killington, 1996).
Pilot Antiviral Assays (for FIG. 2): A549 cells were plated overnight at 20,000 cells/well in 24-well plates in complete DMEM and incubated for 24 h at 37° C. Cell were then treated with pyrimidine de novo synthesis and/or salvage inhibitors in DMEM supplemented with 20 μM uridine. Four hours after drug addition, cells were infected with DENV-2 virus at a MOI=0.01. After 48 h, DENV-Luc replication was monitored by the production of Renilla luciferase, which was measured using the Renilla-Glo Luciferase Assay System (Promega) according to the specifications of the manufacturer. For the accompanying cell viability assay, A549 cells were seeded into 24-well plates at a density of 20,000 cells/well incubated for 24 h at 37° C. Cell were then treated with pyrimidine de novo synthesis and/or salvage inhibitors in DMEM supplemented with 20 μM uridine. Following 48h treatment, cells were harvested, and the density of viable cells was determined by flow cytometry (FSC/SSC) using a BD Accuri C6 Flow Cytometer.

[4] = tested on: DENV-2 virus; test: DENV antiviral assay, DENV-Luc replication in A549 cells (FIGS. 8 and 9); format: cell-based, dengue serotype 2 (DENV-2) strain 16681; conditions: single agents, 20 μM uridine
Procedure: as §1
DENV antiviral assays (For FIGS. 8 and 9): A549 cells were plated overnight at 5,000 cells/well in 96-well plates in complete DMEM and incubated for 24 h at 37° C. Cells were then treated with pyrimidine de novo synthesis inhibitors, and/or salvage inhibitors, and/or R1479 in DMEM supplemented with 20 μM uridine. Four hours after drug addition, cells were infected with DENV-2 virus at a MOI=0.1. After 72 h, DENV-Luc replication was monitored by the production of Renilla luciferase, which was measured using the Renilla-Glo Luciferase Assay System (Promega) according to the specifications of the manufacturer. For the accompanying cell viability assay, A549 cells were seeded at 5,000 cells/well in 96-well plates in complete DMEM and incubated for 24 h at 37° C. Cell were then treated with pyrimidine de novo synthesis inhibitors, and/or salvage inhibitors, and/or R1479 in DMEM supplemented with 20 μM uridine. Following 48 h treatment, cell viability was monitored by ATP levels, which was measured using the CellTiter-Glo Luciferase Assay System (Promega) according to the specifications of the manufacturer.

[5] = tested on: a variety of unrelated viruses; conditions: Harvey et al. (2009); read-out: EC50, replication of a variety of unrelated viruses in vitro; cited from earlier work

O=c1ccn([C@@H]2C=C(CF)[C@@H](O)[C@H]2O)c(=O)[nH]1 [5′-F-CPU, 1-((1R,4R,5S)-3-(fluoromethyl)-4,5-dihydroxycyclopent-2-en-1-yl)pyrimidine-2,4(1H,3H)-dione]
UCK2 substrate or not (ATP consumption) ([1]; 250 μM analog in the presence of 50 μM uridine): inhibitors but not substrates | Ki ([1]; competitive inhibitors of UCK2, Lineweaver-Burk analysis): 170 µM | depletion of intracellular uridine and cytidine nucleotide levels [2]: did not deplete

O=C(N[C@@H]1CCCc2c1[nH]c1ccc(Cl)cc21)c1ccccn1 [GSK983]
inhibition of replication of DENV-2 virus, single agent [3]: neither GSK nor CPU alone inhibited replication | antiviral activity as single agent [4]: neither GSK983 nor CPU were effective | EC50 [5]: 5 to 20 nM
